Where “and” joins values, the source holds several entries; their conditions need not be identical. Equal entries are not always repeated. Toxic doses and inconclusive results are not listed.

This assay deals with L1210 leukemia ip in BDF1 mice, survival T/C. As to the kind of experiment: NCI In Vivo Anticancer Drug Screen. Data for tumor model L1210 Leukemia (intraperitoneal) in B6D2F1 (BDF1) mice. The note with it: endpoint: mean survival time, higher = longer survival. The gist of the method: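 Transplantable tumor model; survival measured in treated vs vehicle control mice. Value = treated/control.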

[1] abbreviates: dose: 100.0 mg/kg/injection, schedule: Q01DX009 (ip), vehicle: saline.
[2] abbreviates: dose: 100.0 mg/kg/injection, schedule: Q04DX003 (ip), vehicle: saline.
Setting [3] is: dose: 200.0 mg/kg/injection, schedule: Q04DX003 (ip), vehicle: saline.
Setting [4] is: dose: 400.0 mg/kg/injection, schedule: Q04DX003 (ip), vehicle: saline.
Setting [5] is: dose: 100.0 mg/kg/injection, schedule: Q01DX001 (ip), vehicle: carboxymethylcellulose (CMC).
Where [6] appears, read: dose: 200.0 mg/kg/injection, schedule: Q01DX001 (ip), vehicle: carboxymethylcellulose (CMC).

Consider `O=C(O)C1CCC(SSC2CCC(C(=O)O)CC2[N+](=O)[O-])C([N+](=O)[O-])C1` (stereo not drawn), for which the T/C by setting is: (dose: 100.0 mg/kg/injection, schedule: Q04DX002 (ip), vehicle: saline with Tween-80) 95 % of control; (dose: 200.0 mg/kg/injection, schedule: Q04DX002 (ip), vehicle: saline with Tween-80) 103 % of control; (dose: 400.0 mg/kg/injection, schedule: Q04DX002 (ip), vehicle: saline with Tween-80) 103 % of control.
Take `Cc1cccc(CSc2nc(N)nc3c2ncn3C2CC(O)C(CO)O2)n1` (stereo not drawn): the T/C (dose: 100.0 mg/kg/injection, schedule: Q01DX005 (ip), vehicle: saline) was 104 % of control; the T/C under setting [1] is 113 % of control; the T/C (dose: 200.0 mg/kg/injection, schedule: Q01DX005 (ip), vehicle: saline) is 107 % of control; the T/C (dose: 600.0 mg/kg/injection, schedule: Q01DX009 (ip), vehicle: saline) is 153 % of control.
For `O=C(N/N=C\c1ccc(Cl)cc1)c1ccccc1`, the T/C by setting is: (dose: 100.0 mg/kg/injection, schedule: Q04DX003 (ip), vehicle: saline with Tween-80) 99 % of control; (dose: 200.0 mg/kg/injection, schedule: Q04DX003 (ip), vehicle: saline with Tween-80) 100 % of control.
For `CSc1ccc2c(c1)N(CCC1CCCCN1C)c1ccccc1S2` (stereo not drawn), the T/C is, setting by setting: (dose: 0.78 mg/kg/injection, schedule: Q01DX009 (ip), vehicle: saline) 101 % of control; (dose: 1.56 mg/kg/injection, schedule: Q01DX009 (ip), vehicle: saline) 103 % of control; (dose: 3.12 mg/kg/injection, schedule: Q01DX009 (ip), vehicle: saline) 94 % of control and 98 % of control; (dose: 6.25 mg/kg/injection, schedule: Q01DX009 (ip), vehicle: saline) 94 % of control and 101 % of control; (dose: 12.5 mg/kg/injection, schedule: Q01DX009 (ip), vehicle: saline) 98 % of control and 116 % of control; (dose: 25.0 mg/kg/injection, schedule: Q04DX003 (ip), vehicle: saline) 103 % of control. The T/C (dose: 50.0 mg/kg/injection, schedule: Q04DX003 (ip), vehicle: saline) is 92 % of control.
For the compound `CC(C)=CCN(CC=C(C)C)CCC(C(N)=O)c1cccc2ccccc12` (stereo not drawn), the T/C is, setting by setting: (dose: 6.25 mg/kg/injection, schedule: Q04DX003 (ip), vehicle: Klucel (hydroxypropylcellulose) (HPC)) 93 % of control; (dose: 12.5 mg/kg/injection, schedule: Q04DX003 (ip), vehicle: Klucel (hydroxypropylcellulose) (HPC)) 93 % of control; (dose: 25.0 mg/kg/injection, schedule: Q04DX003 (ip), vehicle: Klucel (hydroxypropylcellulose) (HPC)) 98 % of control.
Regarding `CCOC(=O)C(CC(C(=O)OCC)C(=O)OCC)C(=O)OCC`, the T/C is, setting by setting: (dose: 75.0 mg/kg/injection, schedule: Q01DX009 (ip), vehicle: saline) 98 % of control; under setting [2], 113 % of control; (dose: 150.0 mg/kg/injection, schedule: Q01DX009 (ip), vehicle: saline) 98 % of control; under setting [3], 97 % of control; (dose: 300.0 mg/kg/injection, schedule: Q01DX009 (ip), vehicle: saline) 95 % of control; under setting [4], 97 % of control.
On to `CC1=CC(=O)C(C(O)(C(F)(F)Cl)C(F)(F)Cl)C(C)(C)C1` (stereo not drawn) (tested in a mixture with another compound), for which the T/C by setting is: (dose: 100.0 mg/kg/injection, schedule: Q01DX009 (ip), vehicle: saline with Tween-80) 98 % of control; under setting [2], 93 % of control; (dose: 200.0 mg/kg/injection, schedule: Q01DX009 (ip), vehicle: saline with Tween-80) 102 % of control; under setting [3], 98 % of control; under setting [4], 104 % of control.
For `CC1C(O)C(O)C(C(=O)O)ON1C(=O)c1ccccc1` (stereo not drawn), the T/C runs as follows: (dose: 100.0 mg/kg/injection, schedule: Q04DX002 (ip), vehicle: saline) 100 % of control; (dose: 200.0 mg/kg/injection, schedule: Q04DX002 (ip), vehicle: saline) 100 % of control; (dose: 400.0 mg/kg/injection, schedule: Q04DX002 (ip), vehicle: saline) 110 % of control.
`CCOc1ccccc1/C=N/Nc1nnc(N/N=C/c2ccccc2OCC)c2ccccc12`: the T/C reads like this: (dose: 50.0 mg/kg/injection, schedule: Q01DX001 (ip), vehicle: carboxymethylcellulose (CMC)) 91 % of control; under setting [5], 97 % of control; under setting [6], 97 % of control; (dose: 400.0 mg/kg/injection, schedule: Q01DX001 (ip), vehicle: carboxymethylcellulose (CMC)) 91 % of control.
`Oc1ccc(Br)cc1C=Nc1cnc2ccccc2c1`: the T/C by setting is: under setting [5], 90 % of control; under setting [6], 90 % of control.
Take `CCc1ccc(/C=C/c2ccc(O)c3ccccc23)[n+](C)c1`: the T/C by setting is: (dose: 75.0 mg/kg/injection, schedule: Q01DX001 (ip), vehicle: saline) 97 % of control; (dose: 150.0 mg/kg/injection, schedule: Q01DX001 (ip), vehicle: saline) 105 % of control.
On to `COc1cccc(OC)c1OS(=O)(=O)c1ccc(COc2ccc([N+](=O)[O-])cc2Cl)cc1`, for which the T/C by setting is: (dose: 100.0 mg/kg/injection, schedule: Q04DX003 (ip), vehicle: Klucel (hydroxypropylcellulose) (HPC)) 98 % of control; (dose: 200.0 mg/kg/injection, schedule: Q04DX003 (ip), vehicle: Klucel (hydroxypropylcellulose) (HPC)) 90 % of control; (dose: 400.0 mg/kg/injection, schedule: Q04DX003 (ip), vehicle: Klucel (hydroxypropylcellulose) (HPC)) 90 % of control.
As to `COc1ccc(C(=NO)c2ccc(OC)cc2)cc1`, the T/C was 102 % of control under setting [1]; 104 % of control under setting [2]; 102 % of control (dose: 200.0 mg/kg/injection, schedule: Q01DX009 (ip), vehicle: saline); 93 % of control under setting [3]; 107 % of control (dose: 400.0 mg/kg/injection, schedule: Q01DX009 (ip), vehicle: saline); 95 % of control under setting [4].
As to `CCN(CC)Cc1ccccc1COC(=O)c1ccc(Br)cc1`, the T/C was 101 % of control (dose: 100.0 mg/kg/injection, schedule: Q04DX002 (ip), vehicle: Klucel (hydroxypropylcellulose) (HPC)); 108 % of control (dose: 200.0 mg/kg/injection, schedule: Q04DX002 (ip), vehicle: Klucel (hydroxypropylcellulose) (HPC)); 101 % of control (dose: 400.0 mg/kg/injection, schedule: Q04DX002 (ip), vehicle: Klucel (hydroxypropylcellulose) (HPC)).
Regarding `CCOC(=O)N=C=S`, the T/C by setting is: under setting [2], 95 % of control; under setting [3], 103 % of control; under setting [4], 95 % of control.
As for `CC(=O)NC(CSC(c1ccccc1)(c1ccccc1)c1ccccc1)C(=O)O` (stereo not drawn), the T/C (dose: 25.0 mg/kg/injection, schedule: Q01DX009 (ip), vehicle: saline) is 102 % of control and the T/C (dose: 50.0 mg/kg/injection, schedule: Q01DX009 (ip), vehicle: saline) was 96 % of control.

The record behind these values is PubChem BioAssay AID248 (DTP/NCI, 2004).
